In patent publication US20090312413A1, “Composition Comprising Tanshinone Compounds Isolated From The Extract Of Salviae Miltiorrhizae Radix For Treating Or Preventing Cognitive Dysfunction And The Use Thereof” (DIGITAL BIOTECH CO., LTD., priority 2005, published 2009):

What was measured:
[1] = system: mice administered aggregated beta amyloid 1-42; test: AD acute model, passive avoidance test; format: in vivo, mouse; details: oral, mice given beta amyloid, p<0.05
Procedure: For passive avoidance test, male ICR mouse weighing 25 g purchased from Samtaco Co. was bred with five mice per cage and the cage was kept with following condition maintaining the temperature of 22±2° C. and the relative humidity of […] under the regularly controlled light/dark condition with an interval of 12 hours.
Synthetic beta amyloid 1-42 (BACHEM) was dissolved in DMSO in order to be 250 μM solution and diluted with PBS to 10 nM and aggregated at 37° C. for four days (Passive Avoidance test) or six days (Y maze test).
Aggregated beta amyloid 1-42 was administrated into the mice according to the procedure disclosed in the literature (Lausen & Belknap, J. Pharmacol. Methods, 16 pp 355-357, 1986).
50 μl of aggregated beta amyloid 1-42 was administrated into the 2.4 mm depth of bregma region with 50 μl of Hamilton micro-syringe equipped with 26-gauge needle. The behavior tests were divided into Y maze test and PA (passive avoidance) test after the beta amyloid administration. Y maze test was performed 2 days after the administration and PA test was 3 days after the administration. Each test was done with more than 10 mice. […]
At 24 hours after the training session, the identical experiment was performed again with mouse to measure the latency time staying at the light chamber. […] Latency to enter the dark compartment from the light compartment was measured as a step through latency. […]

[2] = system: mice directly treated with beta amyloid; test: AD acute model, Y maze test; format: in vivo, mouse; details: 50 mg/kg oral, mice given beta amyloid intracerebro-ventricularly
Procedure: For passive avoidance test, male ICR mouse weighing 25 g purchased from Samtaco Co. was bred with five mice per cage and the cage was kept with following condition maintaining the temperature of 22±2° C. and the relative humidity of […] under the regularly controlled light/dark condition with an interval of 12 hours. Synthetic beta amyloid 1-42 (BACHEM) was dissolved in DMSO in order to be 250 μM solution and diluted with PBS to 10 nM and aggregated at 37° C. for four days (Passive Avoidance test) or six days (Y maze test). Aggregated beta amyloid 1-42 was administrated into the mice according to the procedure disclosed in the literature (Lausen & Belknap, J. Pharmacol. Methods, 16 pp 355-357, 1986). 50 μl of aggregated beta amyloid 1-42 was administrated into the 2.4 mm depth of bregma region with 50 μl of Hamilton micro-syringe equipped with 26-gauge needle. The behavior tests were divided into Y maze test and PA (passive avoidance) test after the beta amyloid administration. […] The entering order of mice in the pathway was observed and the entering latency time was determined when four limbs was entered within the pathway. To determine the spatial memory, the determined spontaneous alteration behavior was calculated by following empirical formula 1 and the actual alteration was assigned to one time at the time that mice was entered three pathways continuously. […]

mouse brain = test: Brain staining of AD acute model (Cresyl violet, ChAT, GFAP); format: in vivo
Procedure: At the end of the experiment, the brain of animals was delivered and kept in 10% formalin solution to staining. At the end of behavior test, the mouse brain was delivered, kept in 10% formalin solution for 24 hours and transferred to 30% sucrose solution. After fixing the brain, the brain was performed to coronal section with a width of 40 μm using by cryostat. The sliced brain was performed to Cresyl violet staining to confirm the injury of brain neuronal cell, to ChAT staining to confirm the injury of cholinergic neuron and to GFAP staining to confirm the activation of astrocytes. After the tissue was placed on gelatin-coated slide to stain with Cresyl violet, the tissue was performed to dehydration using ethanol. The tissue was incubated for about 3 minutes and dipped into 0.5% Cresyl Violet solution for 30 mins. After the solution was performed to […] with ethanol, the slice was dipped into xylene for 3 minutes. The dried tissue was fixed with Canada balsam mounting medium. In the washing process between all the antibody incubation, PBST was used to washing tissues. To reduce the activity of endogenous peroxidase activity, the tissue was pretreated with 0.5% H2O2 and then treated with 5% FBS at room temperature for 1 hour to remove non-specific binding. The tissue was incubated at 4° C. for overnight using by mouse anti-GFAP (1:200) monoclonal antibody and goat-anti-ChAT (1:200) polyclonal antibody. A horse radish peroxidase-conjugated anti-mouse IgG and anti-goat IgG secondary antibody (1:600) was incubated at room temperature for 1 hour and detected by DAB kit after the incubation.

[3] = system: HT 22 mouse neuronal cell line; test: Inhibition test of beta amyloid toxicity (MTT); format: cell-based; details: HT22 cells, 25 μM aggregated beta amyloid, 18 hours
Procedure: HT 22 mouse neuronal cell line was incubated in DMEM (Dulbecco's Modified Eagle's Medium, Gibco-BRL) medium supplemented with 10% FBS (Fetal Bovine Serum, Hyclone) and 1% penicillin/streptomycin (Sigma Co.) Prior to test, HT22 cell was incubated on 96 well plates with a density of 5×10^3 cell/well and further incubated in serum free DMEM medium for 1 hour before the treatment of test sample. Various concentration of diethyl ether extract prepared in Example 1 used as a test sample was added thereto and incubated for 1 hour. Aggregated beta amyloid (US peptide) was treated thereto to the concentration of 25 μM and incubated for 18 hours to induce cell necrosis. 5 mg/ml of MTT (3-(4,5-dimethyl-2-thiazolyl)-2,5-diphenyl-2H-tetrazolium bromide) solution was added each well with 15 μl/well and the well was incubated for 4 hours. Dissolving buffer solution (10% SDS, 50% dimethyl formamide, pH 4.7) was added to each well with 100 μl/well and reacted for overnight. 18 hours after the reaction, the absorbance of solution was determined by microplate reader (SAFIRE, TECAN) at 570 nm/630 nm wavelength (Gillardon, F. et al., Brain Research, 706(1) pp 169-172, 1996).

[4] = Oral administration toxicity test; format: in vivo; details: 2000 mg/kg

SMILES: Cc1coc2c1C(=O)C(=O)c1c-2ccc2c1CCCC2(C)C [tanshinone IIA]
- latency time (step through latency, passive avoidance) [1]: significantly increased
- recovery of memory learning disorder (spontaneous alteration, Y maze) [2]: recovered
- injury of cholinergic neuron caused by beta amyloid (mouse brain; ChAT staining): recovered the injury of cholinergic neuron
- injury of memory learning correlated with hippocampus injury (brain staining) (mouse brain; Cresyl violet staining, mouse brain after beta amyloid): significantly recovered
- activity of astrocyte caused by beta amyloid (mouse brain; GFAP staining): reduced the increased activity of astrocyte
- inhibitory effect on the toxicity of beta amyloid [3]: mere inhibitory effect
- toxicity at oral administration test [4]: no toxicity

SMILES: CC(C)C1=Cc2ccc3c(c2C(=O)C1=O)C=CCC3(C)C [1,2-Didehydromiltirone, 1,2-didehydromiltirone]
- inhibitory effect on the toxicity of beta amyloid [3]: did not inhibit

SMILES: CC(C)C1=Cc2ccc3c(c2C(=O)C1=O)CCCC3(C)C [Miltirone]
- inhibitory effect on the toxicity of beta amyloid [3]: did not inhibit

SMILES: Cc1coc2c1C(=O)C(=O)c1c-2ccc2c(C)cccc12 [tanshinone I]
- inhibitory effect on the toxicity of beta amyloid [3]: did not show any inhibitory effect

SMILES: Cc1cccc2c3c(ccc12)C1=C(C(=O)C3=O)[C@@H](C)CO1 [dihydrotanshinone I]
- inhibitory effect on the toxicity of beta amyloid [3]: did not show any inhibitory effect
